Laboratory results taken from patent publication US20240343681A1, “MOLECULES HAVING PESTICIDAL UTILITY AND INTERMEDIATES AND PROCESSES RELATED THERETO” (priority 2021, published 2024).

How the values were obtained:
[1] = system: Beet Armyworm (Spodoptera exigua, LAPHEG) second instar larva; assay: Bioassay on beet armyworm (BAW), 128-well diet tray assay; assay type: in vivo; conditions: 50 μg/cm^2 on artificial diet, 25° C., five days
Description: Example A: Bioassays on Beet Armyworm (Spodoptera exigua, LAPHEG) (“BAW”) and Cabbage Looper (Trichoplusia ni, TRIPNI) (“CL”)
Bioassays on BAW were conducted using a 128-well diet tray assay. One second instar BAW larva was placed in each well (8 wells total) of the diet tray that had been previously filled with 1 mL of artificial diet to which 50 μg/cm^2 of the test molecule (dissolved in 50 μL of 90:10 acetone-water mixture) had been applied (to each of eight wells) and then allowed to dry. Trays were covered with a clear self-adhesive cover, vented to allow gas exchange, and held at 25° C., 14:10 light-dark for five days. Percent mortality was recorded for the larvae in each well; activity in the eight wells was then averaged.

[2] = system: Yellow Fever Mosquito (Aedes aegypti, AEDSAE) larvae; assay: Bioassay on yellow fever mosquito (YFM), 96-well plate larval assay; assay type: in vivo; conditions: 4000 ppm (master plate solution), about 1 day-old larvae, 3 days
Description: Example B: Bioassays on Yellow Fever Mosquito (Aedes aegypti, AEDSAE) (“YFM”)
Master plates containing 400 μg of a molecule dissolved in 100 μL of dimethyl sulfoxide (DMSO) (equivalent to a 4000 ppm solution) are used. A master plate of assembled molecules contains 15 μL per well. To this plate, 135 μL of a 90:10 water/acetone mixture is added to each well. A robot (Biomek® NXP Laboratory Automation Workstation) is programmed to dispense 15 μL aspirations from the master plate into an empty 96-well shallow plate (“daughter” plate). There are 6 reps (“daughter” plates) created per master. The created “daughter” plates are then immediately infested with YFM larvae.
The day before plates are to be treated, mosquito eggs are placed in Millipore water containing liver powder to begin hatching (4 g into 400 mL). After the “daughter” plates are created using the robot, they are infested with 220 μL of the liver powder/larval mosquito mixture (about 1 day-old larvae). After plates are infested with mosquito larvae, a non-evaporative lid is used to cover the plate to reduce drying. Plates are held at room temperature for 3 days prior to grading. After 3 days, each well is observed and scored based on mortality.

SMILES	activity against BAW (percent mortality, averaged over eight wells) [1]	activity against YFM (scored based on mortality) [2]
COCC(=O)Nc1cccc(NC(=O)[C@H]2[C@H](c3cc(Cl)cc(Cl)c3)C2(Cl)Cl)c1 (racemic) [F4, trans-rac-2,2-Dichloro-3-(3,5-dichlorophenyl)-N-(3-(2-methoxyacetamido)phenyl)cyclopropane-1-carboxamide]	exhibited activity	exhibited activity
O=C(CCC(F)(F)F)Nc1cc(NC(=O)[C@H]2[C@H](c3cc(Cl)cc(Cl)c3)C2(Cl)Cl)ccc1Cl (racemic) [F7, trans-rac-2,2-dichloro-N-(4-chloro-3-(4,4,4-trifluorobutanamido)phenyl)-3-(3,5-dichlorophenyl)cyclopropane-1-carboxamide]	exhibited activity	exhibited activity
O=C(Nc1cc(NC(=O)[C@H]2[C@H](c3cc(Cl)cc(Cl)c3)C2(Cl)Cl)ccc1Cl)c1c(F)cccc1F (racemic) [F25, trans-rac-N-(2-Chloro-5-(2,2-dichloro-3-(3,5-dichlorophenyl)cyclopropane-1-carboxamido)phenyl)-2,6-difluorobenzamide]	exhibited activity	exhibited activity
O=C(Nc1cc(NC(=O)[C@H]2[C@H](c3cc(Cl)cc(Cl)c3)C2(Cl)Cl)ccc1Cl)c1ccccn1 (racemic) [F28, trans-rac-N-(2-chloro-5-(2,2-dichloro-3-(3,5-dichlorophenyl)cyclopropane-1-carboxamido)phenyl)picolinamide]		exhibited activity
O=C(Nc1cc(NC(=O)[C@H]2[C@H](c3cc(Cl)cc(Cl)c3)C2(Cl)Cl)ccc1Cl)c1ccno1 (racemic) [F35, trans-rac-N-(2-Chloro-5-(2,2-dichloro-3-(3,5-dichlorophenyl)cyclopropane-1-carboxamido)phenyl)isoxazole-5-carboxamide]	exhibited activity	exhibited activity
COCC(=O)Nc1cc(NC(=O)[C@H]2[C@H](c3cc(Cl)cc(Cl)c3)C2(Cl)Cl)ccc1Cl (racemic) [F39, trans-rac-2,2-Dichloro-N-(4-chloro-3-(2-methoxyacetamido)phenyl)-3-(3,5-dichlorophenyl)cyclopropane-1-carboxamide]	exhibited activity	exhibited activity
CCOC(C)C(=O)Nc1cc(NC(=O)C2C(c3cc(Cl)cc(Cl)c3)C2(Cl)Cl)ccc1Cl (racemic) [F40, trans-rac-2,2-dichloro-N-(4-chloro-3-(2-ethoxypropanamido)phenyl)-3-(3,5-dichlorophenyl)cyclopropane-1-carboxamide]	exhibited activity	exhibited activity
N#CCC(=O)Nc1cc(NC(=O)[C@H]2[C@H](c3cc(Cl)cc(Cl)c3)C2(Cl)Cl)ccc1Cl (racemic) [F42, trans-rac-2,2-Dichloro-N-(4-chloro-3-(2-cyanoacetamido)phenyl)-3-(3,5-dichlorophenyl)cyclopropanecarboxamide]	exhibited activity	exhibited activity
CCCC(=O)Nc1cc(NC(=O)[C@H]2[C@H](c3cc(Cl)cc(Cl)c3)C2(Cl)Cl)ccc1Cl (racemic) [F45, trans-rac-N-(3-Butyramido-4-chlorophenyl)-2,2-dichloro-3-(3,5-dichlorophenyl)cyclopropane-1-carboxamide]		exhibited activity
O=C(Cc1ccccc1)Nc1cc(NC(=O)[C@H]2[C@H](c3cc(Cl)cc(Cl)c3)C2(Cl)Cl)ccc1Cl (racemic) [F48, trans-rac-2,2-Dichloro-N-(4-chloro-3-(2-phenylacetamido)phenyl)-3-(3,5-dichlorophenyl)cyclopropane-1-carboxamide]	exhibited activity	exhibited activity
O=C(CN1CCOCC1)Nc1cc(NC(=O)[C@H]2[C@H](c3cc(Cl)cc(Cl)c3)C2(Cl)Cl)ccc1Cl (racemic) [F50, trans-rac-2,2-Dichloro-N-(4-chloro-3-(2-morpholinoacetamido)phenyl)-3-(3,5-dichlorophenyl)cyclopropane-1-carboxamide]	exhibited activity	exhibited activity
O=C(Nc1ccc(Cl)c(NC(=O)C(F)(F)F)c1)[C@H]1[C@H](c2cc(Cl)cc(Cl)c2)C1(Cl)Cl (racemic) [F53, trans-rac-2,2-dichloro-N-(4-chloro-3-(2,2,2-trifluoroacetamido)phenyl)-3-(3,5-dichlorophenyl)cyclopropane-1-carboxamide]	exhibited activity	exhibited activity
O=C(Nc1ccc(Cl)c(NC(=O)C(F)(F)Cl)c1)[C@H]1[C@H](c2cc(Cl)cc(Cl)c2)C1(Cl)Cl (racemic) [F54, trans-rac-2,2-Dichloro-N-(4-chloro-3-(2-chloro-2,2-difluoroacetamido)phenyl)-3-(3,5-dichlorophenyl)cyclopropane-1-carboxamide]	exhibited activity	exhibited activity
O=C(Nc1ccc(Cl)c(NC(=O)C(F)(F)C(F)(F)C(F)(F)F)c1)[C@H]1[C@H](c2cc(Cl)cc(Cl)c2)C1(Cl)Cl (racemic) [F56, trans-rac-2,2-Dichloro-N-(4-chloro-3-(2,2,3,3,4,4,4-heptafluorobutanamido)phenyl)-3-(3,5-dichlorophenyl)cyclopropane-1-carboxamide]	exhibited activity	exhibited activity
CCC(F)(F)C(=O)Nc1cc(NC(=O)[C@H]2[C@H](c3cc(Cl)cc(Cl)c3)C2(Cl)Cl)ccc1Cl (racemic) [F58, trans-rac-2,2-Dichloro-N-(4-chloro-3-(2,2-difluorobutanamido)phenyl)-3-(3,5-dichlorophenyl)cyclopropane-1-carboxamide]	exhibited activity	exhibited activity
Cc1cc(C#N)ccc1C(=O)Nc1cc(NC(=O)[C@H]2[C@H](c3cc(Cl)cc(Cl)c3)C2(Cl)Cl)ccc1F (racemic) [F60, trans-rac-4-Cyano-N-(5-(2,2-dichloro-3-(3,5-dichlorophenyl)cyclopropane-1-carboxamido)-2-fluorophenyl)-2-methylbenzamide]	exhibited activity	exhibited activity
O=C(Nc1cc(NC(=O)[C@H]2[C@H](c3cc(Cl)cc(Cl)c3)C2(Cl)Cl)ccc1F)c1c(F)cccc1F (racemic) [F61, trans-rac-N-(5-(2,2-Dichloro-3-(3,5-dichlorophenyl)cyclopropane-1-carboxamido)-2-fluorophenyl)-2,6-difluorobenzamide]	exhibited activity	exhibited activity
O=C(Nc1cc(NC(=O)[C@H]2[C@H](c3cc(Cl)cc(Cl)c3)C2(Cl)Cl)ccc1F)c1cc(F)cc(F)c1 (racemic) [F62, trans-rac-N-(5-(2,2-Dichloro-3-(3,5-dichlorophenyl)cyclopropane-1-carboxamido)-2-fluorophenyl)-3,5-difluorobenzamide]	exhibited activity	exhibited activity
CC(CC(=O)Nc1cc(NC(=O)C2C(c3cc(Cl)cc(Cl)c3)C2(Cl)Cl)ccc1F)C(F)(F)F (racemic) [F64, trans-rac-2,2-Dichloro-3-(3,5-dichlorophenyl)-N-(4-fluoro-3-(4,4,4-trifluoro-3-methylbutanamido)phenyl)cyclopropane-1-carboxamide]	exhibited activity	exhibited activity
O=C(Nc1cc(NC(=O)[C@H]2[C@H](c3cc(Cl)cc(Cl)c3)C2(Cl)Cl)ccc1Cl)c1ccc(F)c(F)c1 (racemic) [F67, trans-rac-N-(2-Chloro-5-(2,2-dichloro-3-(3,5-dichlorophenyl)cyclopropane-1-carboxamido)phenyl)-3,4-difluorobenzamide]	exhibited activity	exhibited activity
O=C(CC1CC1)Nc1cccc(NC(=O)[C@H]2[C@H](c3cc(Cl)cc(Cl)c3)C2(Cl)Cl)c1F [F21, (1R,3R)-2,2-Dichloro-N-(3-(2-cyclopropylacetamido)-2-fluorophenyl)-3-(3,5-dichlorophenyl)cyclopropane-1-carboxamide]		exhibited activity
